Source: patent US11572369B2, “Bicyclic pyridine compositions and methods of using the same for cancer therapy” (UNIVERSITY OF SOUTH CAROLINA, priority 2019, dated 2023)

Columns and labels:
Assay in all cases: KINOMEscan
Type in all cases: binding
Conditions in all cases: 2000 nM
[1] = biological target: T1, PIP5K1A (Homo sapiens, UniProt Q99755)
T1 construct: DNA label (qPCR read-out); purchased KINOMEscan (DiscoveRx) panel

[2] = biological target: T2, CDKL3 (Homo sapiens, UniProt Q8IVW4)
T2 construct: DNA label (for qPCR read-out); purchased DiscoveRx (KINOMEscan scanMAX service)

[3] = biological target: T3, CAMK2B (Homo sapiens, UniProt Q13554)
T3 construct: DNA label (qPCR read-out); purchased KINOMEscan (ScanMAX panel service)

[4] = biological target: T4, PIK3CB (Homo sapiens, UniProt P42338)
T4 construct: DNA label; purchased DiscoveRx (KINOMEscan scanMAX panel)

[5] = biological target: T5, EIF2AK1 (Homo sapiens, UniProt Q9BQI3)
T5 construct: purchased DiscoveRx (KINOMEscan scanMAX panel)

[6] = biological target: T6, CDK2 (Homo sapiens, UniProt P24941)
T6 construct: purchased DiscoverX (KINOMEscan service)

[7] = biological target: T7, DAPK3 (Homo sapiens, UniProt O43293)
T7 construct: DNA label; purchased DiscoveRx (KINOMEscan scanMAX panel)

[8] = biological target: T8, PAK1 (Homo sapiens, UniProt Q13153)
T8 construct: purchased DiscoverX (KINOMEscan service)

[9] = biological target: T9, PIM1 (Homo sapiens, UniProt P11309)
T9 construct: DNA label (qPCR read-out); purchased KINOMEscan (DiscoveRx) panel

[10] = biological target: T10, ERK1 (Homo sapiens, UniProt P27361)
T10 construct: DNA label (qPCR read-out); purchased DiscoveRx (KINOMEscan ScanMAX panel)

[11] = biological target: T11, PYK2 (Homo sapiens, UniProt Q14289)
T11 construct: purchased DiscoveRx (KINOMEscan scanMAX panel)

[12] = biological target: T12, ROCK1 (Homo sapiens, UniProt Q13464)
T12 construct: DNA label (qPCR read-out); purchased DiscoveRx (KINOMEscan ScanMAX panel)

[13] = biological target: T13, NDR2 (Homo sapiens, UniProt Q9Y2H1)
T13 construct: DNA label (for qPCR read-out); purchased KINOMEscan scanMAX panel (DiscoveRx)

[14] = biological target: T14, CAMK2G (Homo sapiens, UniProt Q13555)
T14 construct: DNA label (qPCR read-out); purchased KINOMEscan (ScanMAX panel service)

[15] = biological target: T15, PKNB(M.tuberculosis) (Mycobacterium tuberculosis, UniProt P9WI81)
T15 construct: purchased DiscoveRx (KINOMEscan scanMAX panel)

[16] = biological target: MAP4K4 (Homo sapiens, UniProt O95819)
[17] = biological target: T16, JAK1(JH2domain-pseudokinase) (Homo sapiens, UniProt P23458)
T16 construct: JAK1(JH2domain-pseudokinase); DNA label (for qPCR read-out); purchased DiscoveRx (KINOMEscan scanMAX panel)

[18] = biological target: T17, PAK4 (Homo sapiens, UniProt O96013)
T17 construct: purchased DiscoverX (KINOMEscan service)

[19] = biological target: T18, MET(Y1235D) (Homo sapiens, UniProt P08581, Y1235D)
T18 construct: purchased DiscoveRx (KINOMEscan scanMAX panel, service)

[20] = biological target: T19, PIK3CA (Homo sapiens, UniProt P42336)
T19 construct: DNA label (for qPCR read-out); purchased DiscoveRx (KINOMEscan scanMAX service)

[21] = biological target: T20, WNK1 (Homo sapiens, UniProt Q9H4A3)
T20 construct: purchased KINOMEscan (DiscoveRx) panel service

[22] = biological target: T21, EGFR(G719C) (Homo sapiens, UniProt P00533, G719C)
T21 construct: purchased DiscoveRx (KINOMEscan scanMAX panel)

[23] = biological target: T22, LKB1 (Homo sapiens, UniProt Q15831)
T22 construct: purchased KINOMEscan (DiscoveRx) panel service

[24] = biological target: T23, GRK4 (Homo sapiens, UniProt P32298)
T23 construct: DNA label (for qPCR read-out); purchased DiscoveRx (KINOMEscan scanMAX panel, contract assay)

[25] = biological target: T24, JNK2 (Homo sapiens, UniProt P45984)
T24 construct: DNA label (for qPCR read-out); purchased DiscoveRx (KINOMEscan scanMAX panel)

[26] = biological target: T25, RSK1(Kin.Dom.2-C-terminal) (Homo sapiens, UniProt Q15418)
T25 construct: RSK1(Kin.Dom.2); purchased DiscoveRx (KINOMEscan scanMAX panel)

[27] = biological target: T26, PLK3 (Homo sapiens, UniProt Q9H4B4)
T26 construct: purchased DiscoveRx (KINOMEscan scanMAX panel)

[28] = biological target: T27, AMPK-alpha1 (Homo sapiens, UniProt Q13131)
T27 construct: DNA label (qPCR read-out); purchased KINOMEscan scanMAX panel (DiscoveRx)

[29] = biological target: T28, TSSK3 (Homo sapiens, UniProt Q96PN8)
T28 construct: DNA label (for qPCR read-out); purchased DiscoveRx (KINOMEscan scanMAX panel)

[30] = biological target: T29, PLK4 (Homo sapiens, UniProt O00444)
T29 construct: purchased DiscoveRx (KINOMEscan scanMAX panel)

[31] = biological target: T30, TRKB (Homo sapiens, UniProt Q16620)
T30 construct: DNA label (qPCR read-out); purchased KINOMEscan (DiscoveRx) ScanMAX panel

[32] = biological target: T31, ACVR2A (Homo sapiens, UniProt P27037)
T31 construct: purchased DiscoveRx (KINOMEscan scanMAX panel, service)

[33] = biological target: T32, GSK3B (Homo sapiens, UniProt P49841)
T32 construct: DNA label (for qPCR read-out); purchased DiscoveRx (KINOMEscan scanMAX panel, contract assay)

[34] = biological target: T33, AXL (Homo sapiens, UniProt P30530)
T33 construct: DNA label (qPCR read-out); purchased KINOMEscan scanMAX panel (DiscoveRx)

[35] = biological target: T34, MEK4 (Homo sapiens, UniProt P45985)
T34 construct: purchased DiscoveRx (KINOMEscan scanMAX panel, service)

T1 sequence (Q99755 whole entry): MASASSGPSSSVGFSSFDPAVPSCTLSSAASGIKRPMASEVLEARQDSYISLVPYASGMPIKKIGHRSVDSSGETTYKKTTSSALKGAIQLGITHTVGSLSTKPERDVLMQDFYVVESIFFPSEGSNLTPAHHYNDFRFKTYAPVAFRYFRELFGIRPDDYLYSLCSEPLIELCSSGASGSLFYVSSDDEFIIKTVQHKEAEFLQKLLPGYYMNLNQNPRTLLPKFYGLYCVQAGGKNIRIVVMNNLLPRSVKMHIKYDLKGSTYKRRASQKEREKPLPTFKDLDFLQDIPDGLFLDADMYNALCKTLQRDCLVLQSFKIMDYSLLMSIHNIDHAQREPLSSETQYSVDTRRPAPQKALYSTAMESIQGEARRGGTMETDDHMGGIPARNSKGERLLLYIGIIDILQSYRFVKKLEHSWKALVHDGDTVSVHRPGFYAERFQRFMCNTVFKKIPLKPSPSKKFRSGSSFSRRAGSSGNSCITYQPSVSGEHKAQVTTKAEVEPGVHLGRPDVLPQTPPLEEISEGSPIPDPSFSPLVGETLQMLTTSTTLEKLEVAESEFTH
T3 sequence (Q13554 whole entry): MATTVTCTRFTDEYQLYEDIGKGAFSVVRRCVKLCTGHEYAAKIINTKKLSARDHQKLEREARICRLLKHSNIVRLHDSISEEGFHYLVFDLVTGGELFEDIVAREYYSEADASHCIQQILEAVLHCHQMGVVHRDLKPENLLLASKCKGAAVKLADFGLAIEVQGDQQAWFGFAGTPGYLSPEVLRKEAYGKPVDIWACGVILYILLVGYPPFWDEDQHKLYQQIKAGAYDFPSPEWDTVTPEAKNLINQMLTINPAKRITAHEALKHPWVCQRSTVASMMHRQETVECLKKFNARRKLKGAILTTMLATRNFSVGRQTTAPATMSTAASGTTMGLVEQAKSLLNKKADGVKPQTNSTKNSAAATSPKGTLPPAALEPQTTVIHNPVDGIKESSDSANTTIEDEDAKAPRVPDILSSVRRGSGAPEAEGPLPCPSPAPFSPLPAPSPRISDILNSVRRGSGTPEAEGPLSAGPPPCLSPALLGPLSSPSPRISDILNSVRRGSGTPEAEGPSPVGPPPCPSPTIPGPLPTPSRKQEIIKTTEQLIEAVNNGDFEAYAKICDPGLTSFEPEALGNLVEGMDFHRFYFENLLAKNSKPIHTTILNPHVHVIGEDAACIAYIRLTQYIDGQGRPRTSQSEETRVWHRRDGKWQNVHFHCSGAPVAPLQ
T13 sequence (Q9Y2H1 whole entry): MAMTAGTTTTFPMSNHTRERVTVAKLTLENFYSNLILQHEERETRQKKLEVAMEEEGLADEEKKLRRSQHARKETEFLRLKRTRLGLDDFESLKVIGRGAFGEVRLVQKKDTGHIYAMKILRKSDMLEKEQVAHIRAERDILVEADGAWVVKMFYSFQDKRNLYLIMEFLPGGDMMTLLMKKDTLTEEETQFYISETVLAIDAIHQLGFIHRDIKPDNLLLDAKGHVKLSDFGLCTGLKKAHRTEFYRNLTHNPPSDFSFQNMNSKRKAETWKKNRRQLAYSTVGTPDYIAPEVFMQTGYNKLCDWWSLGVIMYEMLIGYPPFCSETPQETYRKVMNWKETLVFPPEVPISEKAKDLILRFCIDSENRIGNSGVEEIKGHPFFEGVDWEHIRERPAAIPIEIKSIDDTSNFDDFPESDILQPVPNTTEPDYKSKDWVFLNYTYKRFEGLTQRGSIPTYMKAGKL
T14 sequence (Q13555 whole entry): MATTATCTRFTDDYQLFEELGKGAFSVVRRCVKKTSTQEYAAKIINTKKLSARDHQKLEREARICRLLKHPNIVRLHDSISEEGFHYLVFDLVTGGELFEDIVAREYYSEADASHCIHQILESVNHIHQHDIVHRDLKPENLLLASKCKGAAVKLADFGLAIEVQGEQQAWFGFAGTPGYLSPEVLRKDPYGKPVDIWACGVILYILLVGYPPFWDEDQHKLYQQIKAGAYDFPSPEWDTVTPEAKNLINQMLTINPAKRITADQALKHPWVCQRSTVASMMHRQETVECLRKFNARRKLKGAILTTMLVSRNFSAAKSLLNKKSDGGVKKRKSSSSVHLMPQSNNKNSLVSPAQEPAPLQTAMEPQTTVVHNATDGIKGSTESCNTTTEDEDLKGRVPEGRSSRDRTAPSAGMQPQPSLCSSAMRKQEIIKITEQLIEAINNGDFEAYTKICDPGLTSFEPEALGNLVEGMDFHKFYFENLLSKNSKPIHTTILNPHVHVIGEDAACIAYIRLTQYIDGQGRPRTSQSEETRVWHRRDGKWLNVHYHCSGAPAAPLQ
Chain of MAP4K4 (O95819 whole entry): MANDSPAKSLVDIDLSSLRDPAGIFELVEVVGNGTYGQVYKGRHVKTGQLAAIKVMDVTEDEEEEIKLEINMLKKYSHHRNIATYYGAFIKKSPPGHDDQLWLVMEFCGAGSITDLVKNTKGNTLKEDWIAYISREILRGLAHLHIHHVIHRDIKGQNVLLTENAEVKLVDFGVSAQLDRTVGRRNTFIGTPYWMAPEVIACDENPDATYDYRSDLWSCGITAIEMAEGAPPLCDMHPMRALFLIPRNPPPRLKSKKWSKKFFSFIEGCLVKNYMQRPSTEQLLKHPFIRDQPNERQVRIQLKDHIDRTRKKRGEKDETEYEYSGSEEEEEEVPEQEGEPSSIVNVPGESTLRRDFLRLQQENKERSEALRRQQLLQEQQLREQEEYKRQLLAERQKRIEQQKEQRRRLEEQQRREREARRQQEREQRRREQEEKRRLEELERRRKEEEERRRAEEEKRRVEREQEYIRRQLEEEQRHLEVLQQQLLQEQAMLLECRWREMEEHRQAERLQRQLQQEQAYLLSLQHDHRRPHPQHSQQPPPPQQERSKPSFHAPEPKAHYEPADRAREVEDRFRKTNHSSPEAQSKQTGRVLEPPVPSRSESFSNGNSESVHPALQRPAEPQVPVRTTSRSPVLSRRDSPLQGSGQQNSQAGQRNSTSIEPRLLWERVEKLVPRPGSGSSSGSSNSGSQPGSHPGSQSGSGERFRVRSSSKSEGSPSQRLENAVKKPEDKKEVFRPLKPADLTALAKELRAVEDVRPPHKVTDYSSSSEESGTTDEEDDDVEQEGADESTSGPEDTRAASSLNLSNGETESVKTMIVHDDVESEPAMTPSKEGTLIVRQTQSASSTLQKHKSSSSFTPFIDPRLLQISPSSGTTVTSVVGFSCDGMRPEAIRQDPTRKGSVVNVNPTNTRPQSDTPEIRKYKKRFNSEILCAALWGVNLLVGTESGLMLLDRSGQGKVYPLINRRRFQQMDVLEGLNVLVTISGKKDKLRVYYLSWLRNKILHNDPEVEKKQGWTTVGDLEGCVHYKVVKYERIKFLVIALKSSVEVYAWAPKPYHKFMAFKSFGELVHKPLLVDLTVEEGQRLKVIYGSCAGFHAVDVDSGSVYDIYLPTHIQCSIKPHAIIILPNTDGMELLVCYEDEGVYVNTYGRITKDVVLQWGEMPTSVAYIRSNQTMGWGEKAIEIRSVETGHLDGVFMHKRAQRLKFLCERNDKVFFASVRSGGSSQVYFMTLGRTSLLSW
T30 sequence (Q16620 32-822): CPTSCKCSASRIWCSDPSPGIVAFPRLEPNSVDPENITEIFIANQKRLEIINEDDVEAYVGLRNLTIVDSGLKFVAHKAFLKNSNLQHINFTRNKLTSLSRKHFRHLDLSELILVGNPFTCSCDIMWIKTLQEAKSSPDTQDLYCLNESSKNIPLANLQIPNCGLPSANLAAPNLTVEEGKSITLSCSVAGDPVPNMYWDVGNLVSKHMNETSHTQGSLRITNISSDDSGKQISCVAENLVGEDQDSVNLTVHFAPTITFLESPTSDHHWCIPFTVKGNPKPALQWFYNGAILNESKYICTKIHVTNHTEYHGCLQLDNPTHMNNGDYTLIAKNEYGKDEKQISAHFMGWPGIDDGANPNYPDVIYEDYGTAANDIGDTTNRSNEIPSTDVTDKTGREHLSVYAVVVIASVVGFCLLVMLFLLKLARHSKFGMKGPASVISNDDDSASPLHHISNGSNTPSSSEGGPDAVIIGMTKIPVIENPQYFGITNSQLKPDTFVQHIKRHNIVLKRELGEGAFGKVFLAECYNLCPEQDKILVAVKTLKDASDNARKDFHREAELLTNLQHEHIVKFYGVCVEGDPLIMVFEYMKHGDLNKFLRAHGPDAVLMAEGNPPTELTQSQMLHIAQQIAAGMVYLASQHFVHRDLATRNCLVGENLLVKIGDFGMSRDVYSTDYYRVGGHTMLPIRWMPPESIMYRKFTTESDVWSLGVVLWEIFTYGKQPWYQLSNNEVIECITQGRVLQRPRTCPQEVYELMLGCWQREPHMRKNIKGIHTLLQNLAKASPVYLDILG
T17 sequence (O96013 whole entry): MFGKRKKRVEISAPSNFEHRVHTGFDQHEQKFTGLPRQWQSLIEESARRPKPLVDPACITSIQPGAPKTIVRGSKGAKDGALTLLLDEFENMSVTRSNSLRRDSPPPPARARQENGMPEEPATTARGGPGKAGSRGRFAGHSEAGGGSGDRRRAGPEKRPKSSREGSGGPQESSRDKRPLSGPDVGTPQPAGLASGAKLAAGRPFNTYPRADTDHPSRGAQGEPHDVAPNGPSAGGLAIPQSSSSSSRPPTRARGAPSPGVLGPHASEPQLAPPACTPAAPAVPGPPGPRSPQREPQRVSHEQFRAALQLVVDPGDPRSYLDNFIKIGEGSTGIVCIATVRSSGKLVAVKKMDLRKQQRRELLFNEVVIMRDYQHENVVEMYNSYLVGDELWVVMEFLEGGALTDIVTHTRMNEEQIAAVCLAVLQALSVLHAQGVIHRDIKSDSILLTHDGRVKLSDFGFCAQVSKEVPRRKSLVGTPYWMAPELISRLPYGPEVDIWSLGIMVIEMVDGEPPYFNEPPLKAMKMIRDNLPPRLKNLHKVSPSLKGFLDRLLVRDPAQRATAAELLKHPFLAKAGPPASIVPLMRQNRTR

Structure (SMILES)	% Ctrl [1]	% Ctrl [2]	% Ctrl [3]	% Ctrl [4]	% Ctrl [5]	% Ctrl [6]	% Ctrl [7]	% Ctrl [8]	% Ctrl [9]	% Ctrl [10]	% Ctrl [11]	% Ctrl [12]	% Ctrl [13]	% Ctrl [14]	% Ctrl [15]	% Ctrl [16]	% Ctrl [17]	% Ctrl [18]	% Ctrl [19]	% Ctrl [20]	further results
CN(C)C(=O)c1ccc(N2CCCN(c3ccnc4sc(C(N)=O)c(N)c34)CC2)cc1 [15u, 3-amino-4-(4-(4-(dimethylcarbamoyl)phenyl)-1,4-diazepan-1-yl)thieno[2,3-b]pyridine-2-carboxamide]	100 % Ctrl	100 % Ctrl	92 % Ctrl	100 % Ctrl	93 % Ctrl	100 % Ctrl	81 % Ctrl	96 % Ctrl	88 % Ctrl	100 % Ctrl	97 % Ctrl	77 % Ctrl	99 % Ctrl	100 % Ctrl	100 % Ctrl	100 % Ctrl	89 % Ctrl	87 % Ctrl	100 % Ctrl	100 % Ctrl	% Ctrl [21]: 100 % Ctrl; % Ctrl [22]: 97 % Ctrl; % Ctrl [23]: 100 % Ctrl; % Ctrl [24]: 62 % Ctrl; % Ctrl [25]: 99 % Ctrl; % Ctrl [26]: 100 % Ctrl; % Ctrl [27]: 86 % Ctrl; % Ctrl [28]: 100 % Ctrl; % Ctrl [29]: 93 % Ctrl; % Ctrl [30]: 95 % Ctrl; % Ctrl [31]: 88 % Ctrl; % Ctrl [32]: 95 % Ctrl; % Ctrl [33]: 79 % Ctrl; % Ctrl [34]: 99 % Ctrl; % Ctrl [35]: 69 % Ctrl
[2H]C([2H])([2H])N(C(=O)c1ccc(N2CCCN(c3ccnc4sc(C(N)=O)c(N)c34)CC2)cc1)C([2H])([2H])[2H] [15u_D6, 3-amino-4-(4-(4-(bis(methyl-d3)carbamoyl)phenyl)-1,4-diazepan-1-yl)thieno[2,3-b]pyridine-2-carboxamide]	100 % Ctrl	100 % Ctrl	87 % Ctrl	95 % Ctrl	78 % Ctrl	99 % Ctrl	83 % Ctrl	92 % Ctrl	100 % Ctrl	97 % Ctrl	84 % Ctrl	67 % Ctrl	36 % Ctrl	100 % Ctrl	90 % Ctrl	93 % Ctrl	89 % Ctrl	100 % Ctrl	100 % Ctrl	79 % Ctrl	% Ctrl [21]: 93 % Ctrl; % Ctrl [22]: 100 % Ctrl; % Ctrl [23]: 87 % Ctrl; % Ctrl [24]: 98 % Ctrl; % Ctrl [25]: 54 % Ctrl; % Ctrl [26]: 86 % Ctrl; % Ctrl [27]: 90 % Ctrl; % Ctrl [28]: 100 % Ctrl; % Ctrl [29]: 100 % Ctrl; % Ctrl [30]: 92 % Ctrl; % Ctrl [31]: 78 % Ctrl; % Ctrl [32]: 92 % Ctrl; % Ctrl [33]: 77 % Ctrl; % Ctrl [34]: 96 % Ctrl; % Ctrl [35]: 74 % Ctrl
